Here are results for 23 molecules from patent US9725449B2, “Tricyclic compounds as anticancer agents” (BRISTOL-MYERS SQUIBB COMPANY, priority 2015, dated 2017).

The test concerns the target BRD4 (Homo sapiens, UniProt O60885). In words: Time resolved fluorescence resonance energy transfer (TR-FRET) binding assay, bromodomain BRD4. The settings on record: one of the FRET assays described; read-out: FRET BRD4 IC50.

The structures appear in SMILES notation.

As for `COc1nccc2c3ncc(-c4c(C)nnn4C)cc3n(C(c3c(F)cc(F)cc3F)C3CCOCC3)c12` (racemic) [Example 24, 5-(Dimethyl-1H-1,2,3-triazol-5-yl)-10-methoxy-8-[oxan-4-yl(2,4,6-trifluorophenyl)methyl]-3,8,11-triazatricyclo[7.4.0.0^2,^7]trideca-1(13),2(7),3,5,9,11-hexaene], the IC50 was under 10 nM. In the case of `[2H]C([2H])([2H])c1nnn(C)c1-c1cnc2c3c(OC)ncc(S(C)(=O)=O)c3n(C(c3cccc(F)c3)C3CCOCC3)c2c1` (single isomer, unassigned) [Example 87, 8-[(3-Fluorophenyl)(oxan-4-yl)methyl]-10-methanesulfonyl-13-methoxy-5-[4-(^2H3)methyl-1-methyl-1H-1,2,3-triazol-5-yl]-3,8,12-triazatricyclo[7.4.0.0^2,^7]trideca-1(13),2(7),3,5,9,11-hexaene], the IC50 was under 1500 nM. `COc1nc(C(C)(C)O)cc2c1c1ncc(-c3c(C)nnn3C)cc1n2[C@@H](c1ncccc1F)C1CCOCC1` [Example 311, 2-{8-[(R)-(3-Fluoropyridin-2-yl)(oxan-4-yl)methyl]-13-methoxy-5-[4-(^2H3)methyl-1-methyl-1H-1,2,3-triazol-5-yl]-3,8,12-triazatricyclo[7.4.0.0^2,^7]trideca-1(9),2(7),3,5,10,12-hexaen-11-yl}propan-2-ol]: the IC50 was under 10 nM. Consider `[2H]C([2H])([2H])c1nnn(C)c1-c1cnc2c3c(OC)nc(C(C)(C)O)cc3n([C@H](c3ncccc3F)C3CCOCC3)c2c1` [Example 309, 2-{8-[(S)-(3-Fluoropyridin-2-yl)(oxan-4-yl)methyl]-13-methoxy-5-[4-(^2H3)methyl-1-methyl-1H-1,2,3-triazol-5-yl]-3,8,12-triazatricyclo[7.4.0.0^2,^7]trideca-1(9),2(7),3,5,10,12-hexaen-11-yl}propan-2-ol], for which the IC50 was under 10 nM.

As for `[2H]C([2H])([2H])c1nnn(C)c1-c1cnc2c3c(OC)ncc(S(C)(=O)=O)c3n(C(c3ncccc3F)C3CCC(F)(F)CC3)c2c1` (centres unmarked) [Example 72, 8-[(4,4-Difluorocyclohexyl)(3-fluoropyridin-2-yl)methyl]-10-methanesulfonyl-13-methoxy-5-[4-(^2H3)methyl-1-methyl-1H-1,2,3-triazol-5-yl]-3,8,12-triazatricyclo[7.4.0.0^2,^7]trideca-1(13),2(7),3,5,9,11-hexaene], the concentration for half-maximal inhibition (IC50) is under 10 nM. As for `[2H]C([2H])([2H])c1onc(C)c1-c1cnc2c3c(OC)ncc(S(=O)(=O)C([2H])([2H])[2H])c3n(C(c3ncccc3F)C3CCOCC3)c2c1` (centres unmarked) [Example 67, 8-[(3-Fluoropyridin-2-yl)(oxan-4-yl)methyl]-10-(^2H3)methanesulfonyl-13-methoxy-5-[5-(^2H3)methyl-3-methyl-1,2-oxazol-4-yl]-3,8,12-triazatricyclo[7.4.0.0^2,^7]trideca-1(13),2(7),3,5,9,11-hexaene], the figure is under 1500 nM; as for `[2H]C([2H])([2H])c1nnn(C)c1-c1cnc2c3cnc(Cl)cc3n([C@H](c3ncccc3F)C3CCOCC3)c2c1` (stereo in doubt) [Example 314, 11-Chloro-8-[(3-fluoropyridin-2-yl)(oxan-4-yl)methyl]-5-[4-(^2H3)methyl-1-methyl-1H-1,2,3-triazol-5-yl]-3,8,12-triazatricyclo[7.4.0.0^2,^7]trideca-1(9),2(7),3,5,10,12-hexaene], under 10 nM. Then `Cc1nnn(C)c1-c1cnc2c3ccc(C4=CCN(C)CC4)nc3n([C@H](c3ccccc3F)C3CCOCC3)c2c1` [Example 230, 5-(Dimethyl-1H-1,2,3-triazol-5-yl)-8-[(S)-(2-fluorophenyl)(oxan-4-yl)methyl]-11-(1-methyl-1,2,3,6-tetrahydropyridin-4-yl)-3,8,10-triazatricyclo[7.4.0.0^2,^7]trideca-1(13),2(7),3,5,9,11-hexaene], with under 10 nM. Regarding `[2H]C([2H])([2H])c1nnn(C)c1-c1cnc2c3ccc(-c4c(C([2H])([2H])[2H])nnn4C)nc3n(C(c3ncccc3F)C3CCOCC3)c2c1` (centres unmarked) [Example 247, 8-[(3-Fluoropyridin-2-yl)(oxan-4-yl)methyl]-5,11-bis[4-(^2H3)methyl-1-methyl-1H-1,2,3-triazol-5-yl]-3,8,10-triazatricyclo[7.4.0.0^2,^7]trideca-1(13),2(7),3,5,9,11-hexaene], the IC50 was under 1 nM.

Take `Cc1nnn(C)c1-c1cnc2c3c(OC(C)C)ncc(S(C)(=O)=O)c3n([C@H](c3ccccc3)C3CCOCC3)c2c1` [Example 57, 5-(Dimethyl-1H-1,2,3-triazol-5-yl)-10-methanesulfonyl-8-[(S)-oxan-4-yl(phenyl)methyl]-13-(propan-2-yloxy)-3,8,12-triazatricyclo[7.4.0.0^2,^7]trideca-1(13),2(7),3,5,9,11-hexaene]: the IC50 is under 1 nM. With `[2H]C([2H])([2H])c1nnn(C)c1-c1cc2c(cn1)c1ncc(C(C)(C)O)cc1n2C(c1ncccc1F)C1CCOCC1` (single isomer, unassigned) [Example 366], the IC50 was under 10 nM.

`Cc1nnn(C)c1-c1cnc2c3ccc(N4CC(C)S(=O)(=O)C(C)C4)nc3n([C@H](c3ccccc3)C3CCOCC3)c2c1` (single isomer, unassigned) [Example 190]: the IC50 was under 1 nM. In the case of `COc1ncc(C(=O)N2CC(F)C2)c2c1c1ncc(-c3c(C)nnn3C)cc1n2[C@H](c1ccccc1)C1CCOCC1` [Example 137, 5-(dimethyl-1H-1,2,3-triazol-5-yl)-10-(3-fluoroazetidine-1-carbonyl)-13-methoxy-8-[(S)-oxan-4-yl(phenyl)methyl]-3,8,12-triazatricyclo[7.4.0.0^2,^7]trideca-1(9),2,4,6,10,12-hexaene], the IC50 was under 10 nM. Turning to `[2H]C([2H])([2H])c1nnn(C)c1-c1cnc2c3ccc(N(C)CCNC)nc3n([C@H](c3ccccc3F)C3CCOCC3)c2c1` [Example 236, 8-[(S)-(2-Fluorophenyl)(oxan-4-yl)methyl]-N-methyl-5-[4-(^2H3)methyl-1-methyl-1H-1,2,3-triazol-5-yl]-N-[2-(methylamino)ethyl]-3,8,10-triazatricyclo[7.4.0.0^2,^7]trideca-1(13),2(7),3,5,9,11-hexaen-11-amine], the IC50 was under 1 nM. Then `Cc1nnn(C)c1-c1cnc2c3ccc(-c4c(C)nnn4C)nc3n([C@H](c3ccccc3F)C3CCOCC3)c2c1` [Example 227, 5,11-Bis(dimethyl-1H-1,2,3-triazol-5-yl)-8-[(S)-(2-fluorophenyl)(oxan-4-yl)methyl]-3,8,10-triazatricyclo[7.4.0.0^2,^7]trideca-1(13),2(7),3,5,9,11-hexaene], with under 1 nM; and `[2H]C([2H])([2H])c1nnn(C)c1-c1cnc2c3c(OC)ncc(C(C)(C)O)c3n([C@H](c3ccccc3)C3CCOCC3)c2c1` [Example 138, 2-{13-Methoxy-5-[4-(^2H3)methyl-1-methyl-1H-1,2,3-triazol-5-yl]-8-[(S)-oxan-4-yl(phenyl)methyl]-3,8,12-triazatricyclo[7.4.0.0^2,^7]trideca-1(13),2(7),3,5,9,11-hexaen-10-yl}propan-2-ol], with under 10 nM; and `COc1nccc2c3ncc(-c4c(C)nnn4C)cc3n(C(c3ccc(F)cc3F)C3CCOCC3)c12` (racemic) [Example 25, 8-[(2,4-Difluorophenyl)(oxan-4-yl)methyl]-5-(dimethyl-1H-1,2,3-triazol-5-yl)-10-methoxy-3,8,11-triazatricyclo[7.4.0.0^2,^7]trideca-1(13),2(7),3,5,9,11-hexaene], with under 10 nM. For the molecule `COc1ncc(S(C)(=O)=O)c2c1c1ncc(-c3c(C)nnn3C)cc1n2C(c1ccccc1)C1CCC(F)(F)CC1` (single isomer, unassigned) [Example 90, 8-[(4,4-Difluorocyclohexyl)(phenyl)methyl]-5-(dimethyl-1H-1,2,3-triazol-5-yl)-10-methanesulfonyl-13-methoxy-3,8,12-triazatricyclo[7.4.0.0^2,^7]trideca-1(13),2(7),3,5,9,11-hexaene], the IC50 is under 10 nM. As for `Cc1nnn(C)c1-c1cnc2c3ccc(S(=O)(=O)N4CCN(C)CC4)nc3n([C@H](c3ccccc3)C3CCOCC3)c2c1` [Example 198, 5-(Dimethyl-1H-1,2,3-triazol-5-yl)-11-[(4-methylpiperazin-1-yl)sulfonyl]-8-[(S)-oxan-4-yl(phenyl)methyl]-3,8,10-triazatricyclo[7.4.0.0^2,^7]trideca-1(9),2(7),3,5,10,12-hexaene], the IC50 was under 10 nM. Then `[2H]C([2H])([2H])c1nnn(C)c1-c1cnc2c3c(N(C)C(C)C)ncc(S(C)(=O)=O)c3n([C@H](c3ccccc3)C3CCOCC3)c2c1` [Example 116, 10-Methanesulfonyl-N-methyl-5-[4-(^2H3)methyl-1-methyl-1H-1,2,3-triazol-5-yl]-8-[(S)-oxan-4-yl(phenyl)methyl]-N-(propan-2-yl)-3,8,12-triazatricyclo[7.4.0.0^2,^7]trideca-1(13),2(7),3,5,9,11-hexaen-13-amine], with under 1 nM. With `Cc1nnn(C)c1-c1cnc2c3ccc(NC(=O)C(C)C)nc3n([C@H](c3ccccc3F)C3CCOCC3)c2c1` [Example 275, N-[5-(Dimethyl-1H-1,2,3-triazol-5-yl)-8-[(S)-(2-fluorophenyl)(oxan-4-yl)methyl]-3,8,10-triazatricyclo[7.4.0.0^2,^7]trideca-1(13),2(7),3,5,9,11-hexaen-11-yl]-2-methylpropanamide], the IC50 was under 10 nM. As to `Cc1nnn(C)c1-c1cnc2c3ccnc(Cl)c3n([C@H](c3ccccc3F)C3CCOCC3)c2c1` [Example 5, 10-Chloro-5-(dimethyl-1H-1,2,3-triazol-5-yl)-8-[(S)-(2-fluorophenyl)(oxan-4-yl)methyl]-3,8,11-triazatricyclo[7.4.0.0^2,^7]trideca-1(13),2(7),3,5,9,11-hexaene], the IC50 is under 10 nM. Turning to `[2H]C([2H])([2H])c1nnn(C)c1-c1cnc2c3c(OC)nc(N(C)CCNC)cc3n([C@H](c3ncccc3F)C3CCOCC3)c2c1` [Example 313, 8-[(S)-(3-Fluoropyridin-2-yl)(oxan-4-yl)methyl]-13-methoxy-N-methyl-5-[4-(^2H3)methyl-1-methyl-1H-1,2,3-triazol-5-yl]-N-[2-(methylamino)ethyl]-3,8,12-triazatricyclo[7.4.0.0^2,^7]trideca-1(9),2(7),3,5,10,12-hexaen-11-amine], the IC50 was under 1500 nM.

The IC50 is the concentration that gives 50% inhibition.
